The source of these data is patent US4684645A, “Benzofused lactams as cholecystokinin antagonists” (Merck & Co., Inc., priority 1985, dated 1987).

Assay [1] relates to guinea pig gall bladder. The assay is described as follows: CCK induced contraction, isolated guinea pig gall bladder. Also on record: species or system guinea pig (male Hartley). The following applies: at 26 μM. On the procedure:
Male Hartley guinea pigs (400-600 g) were sacrificed by decapitation. The whole gall bladder was dissected free from adjacent tissues and cut into two equal halves. The gall bladder strips were suspended along the axis of bile duct in 5 ml organ bath under 1 g tension. The organ bath contained a Kreb's bicarbonate solution (NaCl 118 mM, KCl 4.75 mM, CaCl 2.54 mM, KH2 PO4 1.19 mM, Mg SO4 1.2 mM, NaHCO3 25 mM and dextrose 11 mM) maintained at 32° C. and bubbled with 95% O2 and 5% CO2. Isometric contractions were recorded using Statham (60 g; 0.12 mm) strain gauges and a Hewlett-Packard (77588) recorder. The tissues were washed every 10 minutes for 1 hr to obtain equilibrium prior to the beginning of the study. CCK-8 was added cumulatively to the baths and EC50 's determined using egression analysis. After washout (every 10 minutes for 1 hr), the compound of Formula I was added at least 5 minutes before the addition of CCK-8 and the EC50 of CCK-8 in the presence of the compound of Formula I similarly determined.

The target in assay [2] is CCK receptor. The assay is described as follows: 125I-CCK-33 receptor binding (pancreas or brain preparation not given). The following applies: concentration dependent inhibition; tissue (rat pancreas or guinea pig brain) not stated; read-out: IC50, inhibition of specific 125I-CCK-33 binding. As for the experimental part:
The biological activity of the compounds of Formula I have been evaluated using an ^125 I-CCK receptor binding assay and in vitro isolated tissue preparations.
(§1) CCK-33 was radiolabeled with ^125 I-Bolton Hunter reagent (2000 Ci/mmole) as described by Sankara et al. (J. Biol. Chem. 254: 9349-9351, 1979). Receptor binding was performed according to Innis and Snyder (Proc. Natl. Acad. Sci. 77: 6917-6921, 1980) with the minor modification of adding the additional protease inhibitors, phenylmethane sulfonyl fluoride and o-phenanthroline. The latter two compounds have no effect on the ^125 I-CCK receptor binding assay.
Male Sprague-Dawley rats (200-350 g) were sacrificed by decapitation. The whole pancreas was dissected free of fat tissue and was homogenized in 20 volumes of ice-cold 50 mM, Tris HCl (pH 7.7 at 25° C.) with a Brinkmann Polytron PT 10. The homogenates were centrifuged at 48,000 g for 10 min. Pellets were resuspended in Tris Buffer, centrifuged as above and resuspended n 200 volumes of binding assay buffer (50 mM Tris HCl, pH 7.7 at 25° C., 5 mM dithiothriethel, 0.1 mM bacitracin, 1.2 mM phenylmethane sulfonyl fluoride and 0.5 mM o-phenanthroline). For the binding assay, 25 μl of buffer (for total binding) or unlabeled CCK-8 sulfate to give a final concentration of lμM (for nonspecific binding) or the compounds of Formula I (for determination inhibition of ^125 I-CCK binding) and 25 μl of ^125 I-CCK-33 (30,000-40,000 cpm) were added to 450 μl of the membrane suspensions in microfuge tubes. All assays were run in duplicate or triplicate. […] The supernatant was aspirated and discarded, pellets were counted with a Beckman gamma 5000. […]
Male Hartley guinea pigs (300-500 g) were sacrificed by decapitation and the brains were removed and placed in ice-cold 50 mM, Tris HCl plus 7.58 g/l Tritma-7.4 (pH 7.4 at 25° C.) Cerebral cortex was dissected and used as a receptor source. […] The supernatant was aspirated and discarded, pellets were counted with a Beckman gamma 5000.

Assay [3] has as its system guinea pig ileum. Nature of the assay: CCK induced contraction, isolated longitudinal muscle of guinea pig ileum. Also on record: species or system guinea pig (male Hartley). The conditions noted are these: at 4.2 μM. As for the experimental part: Longitudinal muscle strips with attached nerve plexus were prepared as described previously (Brit J. Pharmac. 23: 356-363, 1964; J. Physiol. 194: 13-33, 1969). Male Hartley guinea pigs were decapitated and the ileum was removed (10 cm of the terminal ileum was discarded and the adjacent 20 cm piece was used). A piece (10 cm) of the ileum was stretched on a glass pipette. Using a cotton applicator to stroke tangently away from the mesentery attachment at one end, the longitudinal muscle was separated from the underlying circular muscle. The longitudinal muscle was then tied to a thread and by gently pulling, stripped away from the entire muscle. A piece of approximately 2 cm was suspended in 5 ml organ bath containing Krebs solution and bubbled with 95% O2 and 5% CO2 at 37° C. under 0.5 g tension. CCK-8 was added cumulatively to the baths and EC50 values in the presence and absence of compounds of Formula I determined as described in the gall bladder protocol (above).

Assay [4] relates to CCK receptor (pancreas). Nature of the assay: CCK Receptor Binding (Pancreas), 125I-CCK-33. On the set-up: species or system rat (male Sprague-Dawley). The following applies: added as protease inhibitors; binding assay buffer. As for the experimental part:
as §1
Male Sprague-Dawley rats (200-350 g) were sacrificed by decapitation. The whole pancreas was dissected free of fat tissue and was homogenized in 20 volumes of ice-cold 50 mM, Tris HCl (pH 7.7 at 25° C.) with a Brinkmann Polytron PT 10. The homogenates were centrifuged at 48,000 g for 10 min. Pellets were resuspended in Tris Buffer, centrifuged as above and resuspended n 200 volumes of binding assay buffer (50 mM Tris HCl, pH 7.7 at 25° C., 5 mM dithiothriethel, 0.1 mM bacitracin, 1.2 mM phenylmethane sulfonyl fluoride and 0.5 mM o-phenanthroline). […] The supernatant was aspirated and discarded, pellets were counted with a Beckman gamma 5000.

For `CCOC(=O)CN1C(=O)C(NC(CCc2ccccc2)C(=O)OCC)CCc2ccccc21` (racemic) [1-Carboethoxymethyl-3-(1-carboethoxy-3-phenyl-1-propyl)-amino homodihydrocarbostyril], in assay [1], the “effect on maximal responses to CCK” value is “without reducing maximal responses” and the “shift of CCK dose response” value was “about 10 times”.

Broadly, the IC50 is the concentration that gives 50% inhibition. For the compound `COC(=O)CN1C(=O)C(NC(CCc2ccccc2)C(=O)OC)CCc2ccccc21` (racemic) [1-Carbomethoxymethyl-3-(1-carbomethoxy-3-phenyl-1-propyl)aminohomodihydrocarbostyril], in assay [2], the IC50 was 10 µM.

As for `CCOC(=O)C(CCc1c[nH]c2ccccc12)NC1CCc2ccccc2N(CC(=O)OC(C)(C)C)C1=O` (stereo not drawn) [1-t-Butoxycarbonylmethyl-3-(1-carboethoxy-3-(3)indolyl-1-propyl)amino homodihydrocarbostyril], in assay [2], the IC50 was 0.4 µM. Moreover, in assay [3], the “effect on maximal responses to CCK” value was “without affecting maximal responses” and the “shift of CCK dose response to the right” value was “approximately 2.6 fold”.

As to `CCOC(=O)C(CCc1ccccc1)NC1CCc2ccccc2N(CC(=O)OC(C)(C)C)C1=O` (stereo not drawn) [1-t-Butoxycarbonylmethyl-3-(1-carboethoxy-3-phenyl-1-propyl]-amino homodihydrocarbostyril], the half-inhibitory concentration (IC50) in assay [2] stood at 2.4 µM.

For `c1cnc2c(c1)ccc1cccnc12` [o-phenanthroline], the “effect on the 125I-CCK receptor binding assay” value in assay [4] was “no effect”.

Take `O=S(=O)(F)Cc1ccccc1` [phenylmethane sulfonyl fluoride]: the “effect on the 125I-CCK receptor binding assay” value in assay [4] is given as “no effect”.
